Tests used:
[1] = Clinical study safety: treatment-emergent adverse events; assay type: in vivo, human
Text: (§1) The study was configured as a placebo-controlled, double-masked, randomized, Phase 2 study in approximately 100 subjects with moderately severe to severe NPDR (diabetic retinopathy severity score [DRSS] Level 47 or 53, see FIG. 1) or mild PDR (DRSS Level 61), evaluating safety and efficacy following administration of Compound 1 twice daily for 24 weeks. The study was configured for a 1:1 randomization (placebo: Compound 1). Randomization was stratified by level of disease severity (NPDR or PDR). Subjects with mild PDR were capped at 20% for each arm. Efficacy evaluations at 12 and/or 24 weeks included DRSS, center-involved diabetic macular edema (DME), moderate PDR or PDR-related adverse events (AEs), best-corrected visual acuity (BCVA), and central subfield thickness (CST). Further experimental procedures and results are described below.
(§2) At the Qualification/Baseline (Visit 2, Day 1): • The subject was randomized into the study. • Study medication was dispensed in accordance with the subjects randomized treatment arm. • Blood samples were drawn pre-dose for baseline levels and on Visit 9 (Week 24) for exploratory biomarker processing (i.e., cytokine and Ref-1 levels) to evaluate pharmacodynamic properties. • Subjects were instructed to administer their study medication (Compound 1 or placebo) each day, with 3 tablets every morning and 2 tablets every evening. Study medication was to be taken at approximately the same time each day and may be taken with or without food.
(§3) Safety endpoints include: • Incidence and severity of systemic and ocular AEs, • Change from baseline in body system assessments, • Change from baseline in vital sign measurements, • Change from baseline in clinical laboratory assay results (blood chemistry, hematology), • Change from baseline in intraocular pressure (IOP), • Change from baseline in slit-lamp examination parameters, • Change from baseline in dilated funduscopic examination parameters, • Percent of subjects with a decrease of ≥10 letters in BCVA compared to baseline at Week 12 and Week 24, • Percent of subjects progressing to center-involved DME (eligible for rescue treatment at Week 12 and Week 24), • Percent of subjects with a worsening in DRSS of ≥2 steps in the study eye at Week 12 and Week 24, • Percent of subjects developing anterior segment neovascularization at Week 12 and Week 24, • Percent of subjects rescued (intravitreal anti-VEGF injection, laser PRP, focal/grid laser treatment, or surgery [vitrectomy]) at the discretion of the Investigator at Week 12 and Week 24, and • Change from baseline in estimated glomerular filtration rate (eGFR) at Week 12 and Week 24.
Analysis populations included: • Modified Intention-to-Treat (mITT): The mITT includes all randomized subjects who received at least one dose of study treatment and at least one post-dose efficacy measurement. […] The PP population will be used for primary endpoint analysis and to analyze efficacy endpoints. • All Randomized Population (ARP): The ARP includes all randomized subjects. This population is also known as the Intent-to-Treat (ITT) population. The ARP will be used in confirmatory efficacy analyses. • Safety Population (SP): The SP includes all randomized subjects who have received at least one dose of study treatment. The SP was used to summarize safety variables.
Provided below is data on safety on Compound 1 orally administered to patients according to the study protocol described herein. The data is from one-hundred patients that were enrolled in the trial. Per the study protocol described above, patients enrolled in the study were randomized 1:1 for receipt of placebo versus Compound 1. The safety data below is the combined results from patients that received placebo and those received Compound 1.
Table 9 below provides a summary of occurrence of adverse events across 100 subjects enrolled in the study, which is the combined results from patients that received placebo and those that received Compound 1. […]

[2] = Clinical study safety: glomerular filtration rate; assay type: in vivo, human; settings: combined placebo + Compound 1 patients; for Mean Glomerular Filtration Rate: Baseline 92.53
Text: as §1, §2
At the Second Treatment Visit (Visit 6, Week 12±2 Days), subjects were to return to the site for the following series of safety and efficacy assessments: drug accountability, concomitant medications, urine pregnancy test (only for women of childbearing potential), HR/BP/vital signs, BCVA (ETDRS), DRSS, CST (SD-OCT), blood draw for PK, blood chemistry, blood hematology, biomicroscopy, ophthalmoscopy, IOP, eGFR, and AEs. Following the completion of the assessments, used medication kits were collected for accountability (by counting the number of unused tablets), and new study medication kits dispensed.
At the Third Treatment Visit (Visit 9, Week 24±2 Days), subjects were to return to the site for the following series of safety and efficacy assessments: drug accountability, concomitant medications, urine pregnancy test (only for women of childbearing potential), physical examination, HR/BP/vital signs, BCVA (ETDRS), DRSS, CST (SD-OCT), blood chemistry, blood hematology, biomicroscopy, ophthalmoscopy, IOP, eGFR, AEs, and blood draw for exploratory biomarkers (ELISA, cytokine panel, comprehensive metabolic panel). Visit 9 (Week 24) was the end of the treatment period. Study medication was returned for accountability (by counting the number of unused tablets), and no further study medication dispensed.
as §3, with “24. […]” for “24.”

[3] = 100 subjects, combined placebo + Compound 1, bilateral ocular events counted twice
[4] = 100 subjects, combined placebo + Compound 1 patients

CCCCCCCCC/C(=C\C1=C(C)C(=O)C(OC)=C(OC)C1=O)C(=O)O [Compound 1, (E)-2-((4,5-dimethoxy-2-methyl-3,6-dioxocyclohexa-1,4-dien-1-yl)methylene)undecanoic acid]
No. of Subjects That Experienced a Treatment-Emergent Adverse the Category: Anterior (eye disorder) [1, 3]: 5 | No. of Subjects That Experienced a Treatment-Emergent Adverse the Category: Posterior (eye disorder) [1, 3]: 9 | No. of Subjects That Experienced a Treatment-Emergent Adverse the Category: Blood or lymphatic system disorder [1, 4]: 1 | No. of Subjects That Experienced a Treatment-Emergent Adverse the Category: Cardiac disorder [1, 4]: 1 | No. of Subjects That Experienced a Treatment-Emergent Adverse the Category: Ear or labyrinth disorder [1, 4]: 1 | No. of Subjects That Experienced a Treatment-Emergent Adverse the Category: Eye disorder [1, 4]: 9 | No. of Subjects That Experienced a Treatment-Emergent Adverse the Category: Gastrointestinal disorder [1, 4]: 9 | No. of Subjects That Experienced a Treatment-Emergent Adverse the Category: General disorders or administration site condition [1, 4]: 1 | No. of Subjects That Experienced a Treatment-Emergent Adverse the Category: Hepatobiliary disorder [1, 4]: 1 | No. of Subjects That Experienced a Treatment-Emergent Adverse the Category: Infection or infestation [1, 4]: 9 | No. of Subjects That Experienced a Treatment-Emergent Adverse the Category: Injury, poisoning, or procedural complication [1, 4]: 1 | No. of Subjects That Experienced a Treatment-Emergent Adverse the Category: Investigation [1, 4]: 3 | No. of Subjects That Experienced a Treatment-Emergent Adverse the Category: Metabolism or nutrition disorder [1, 4]: 1 | No. of Subjects That Experienced a Treatment-Emergent Adverse the Category: Musculoskeletal and connective tissue disorder [1, 4]: 5 | No. of Subjects That Experienced a Treatment-Emergent Adverse the Category: Nervous system disorder [1, 4]: 7 | No. of Subjects That Experienced a Treatment-Emergent Adverse the Category: Not coded [1, 4]: 4 | No. of Subjects That Experienced a Treatment-Emergent Adverse the Category: Psychiatric disorder [1, 4]: 2 | No. of Subjects That Experienced a Treatment-Emergent Adverse the Category: Reproductive system or breast disorder [1, 4]: 1 | No. of Subjects That Experienced a Treatment-Emergent Adverse the Category: Respiratory, thoracic, or mediastinal disorder [1, 4]: 2 | No. of Subjects That Experienced a Treatment-Emergent Adverse the Category: Skin and subcutaneous tissue disorder [1, 4]: 7 | No. of Subjects That Experienced a Treatment-Emergent Adverse the Category: Vascular disorder [1, 4]: 1 | safety profile ([1]; administered according to study protocol, 600 mg/day oral, 24 weeks): good safety profile | total treatment-emergent adverse events observed ([1]; from 100 subjects, combined placebo + Compound 1 patients): 83 | subjects reporting at least one treatment-emergent adverse event ([1]; of 100 subjects, combined placebo + Compound 1 patients): 41 | Mean Glomerular Filtration Rate ([2]; Week 12, 52 subjects): 83.85 mL/min/1.73 m^2 | Mean Glomerular Filtration Rate ([2]; Week 24, 24 subjects): 77.7 mL/min/1.73 m^2 | change in mean glomerular filtrate rate relative to Baseline ([2]; week 12, 47 subjects): −2.24 mL/min/1.73 m^2 | reduction in mean glomerular filtrate rate relative to Baseline ([2]; week 12, 47 subjects): 2% | change in mean glomerular filtrate rate relative to Baseline ([2]; week 24, 21 subjects): −9.84 mL/min/1.73 m^2 | reduction in mean glomerular filtrate rate relative to Baseline ([2]; week 24, 21 subjects): 11%

— patent publication US20260108483A1, “METHODS AND COMPOSITIONS FOR PREVENTING THE PROGRESSION OF DIABETIC RETINOPATHY AND RELATED CONDITIONS” (Opus Genetics, Inc., priority 2023, published 2026)
